Test systems include OVCAR-8 ovarian; DU-145 prostate; NCI-H226 lung; RXF 393 renal; HCT-116 colon; M14 melanoma; KM20L2 colon; M19-MEL melanoma; RXF-631 renal; HOP-18 NSCLC; DMS 273 small cell lung; DLD-1 colon; LXFL 529 NSCLC; SNB-78 CNS; XF 498 CNS; DMS 114 small cell lung.
What all share (experiment): growth of human tumour cells (NCI), 48 h

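The compound was tested at five concentrations on cells cultured in 96-well plates, with a 48-hour exposure period. TGI: total growth inhibition.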

As for `COC(=O)c1ccc(CCC2=CC(=O)C=CC2=O)cc1`, the TGI was determined as 50.7 µM in the assay on OVCAR-8 ovarian; 33.8 µM with DU-145 prostate; 48.3 µM in the assay on NCI-H226 lung; 25.3 µM with RXF 393 renal; 25.9 µM in the assay on HCT-116 colon; 32.4 µM in the assay on M14 melanoma.
`O=[N+]([O-])c1ccc2c3c1[C@@H]1O[C@@H]1c1cccc(c1-3)[C@@H]1O[C@H]21`: the TGI was 4.46 µM in the assay on OVCAR-8 ovarian; 8.72 µM in the assay on DU-145 prostate; greater than 80.9 µM with NCI-H226 lung; 16.8 µM with RXF 393 renal; 5.95 µM with HCT-116 colon; 9.9 µM in the assay on M14 melanoma.
With `CN(Cc1cccc2ccsc12)/N=C\c1ccc(Cl)cc1`, the TGI in the assay on OVCAR-8 ovarian, with DU-145 prostate, in the assay on NCI-H226 lung, in the assay with RXF 393 renal, with HCT-116 colon and with M14 melanoma was greater than 100 µM in each case.
On to `CCOC(=O)c1nc2ccc(C(F)(F)F)cc2nc1Oc1ccc(OC)cc1`, for which the TGI with OVCAR-8 ovarian, with DU-145 prostate, in the assay on NCI-H226 lung, with RXF 393 renal, with HCT-116 colon and in the assay with M14 melanoma was greater than 100 µM throughout.
`Cc1ccc2c(=O)cc(-c3cc(C)sc3C)[nH]c2n1`: the TGI in the assay on OVCAR-8 ovarian was greater than 37.3 µM; with DU-145 prostate it was greater than 94.5 µM; with NCI-H226 lung it was 7.62 µM; in the assay with RXF 393 renal it was greater than 24.4 µM; in the assay on HCT-116 colon, greater than 69 µM; in the assay with M14 melanoma, greater than 100 µM.
`Cc1cccc(C)c1NC(=O)C(=O)CC(=O)c1sc(Nc2c(C)cccc2C)nc1C`: the TGI with OVCAR-8 ovarian, with DU-145 prostate, in the assay on NCI-H226 lung, in the assay with RXF 393 renal, in the assay on HCT-116 colon and in the assay with M14 melanoma was greater than 100 µM in each case.
As for `CC1(C)CC(=O)C(C(=O)Nc2cccs2)=C(O)C1`, the TGI was greater than 100 µM in the assay with OVCAR-8 ovarian; greater than 100 µM in the assay on KM20L2 colon; greater than 100 µM in the assay with M19-MEL melanoma; greater than 100 µM in the assay on RXF-631 renal; greater than 100 µM with HOP-18 NSCLC; 86.8 µM in the assay with NCI-H226 lung. Also, the TGI in the assay on RXF 393 renal was greater than 100 µM; in the assay with DMS 273 small cell lung, 82 µM; in the assay with DLD-1 colon, greater than 100 µM; with HCT-116 colon, greater than 100 µM; in the assay with M14 melanoma, greater than 100 µM; in the assay with LXFL 529 NSCLC, greater than 100 µM. The TGI in the assay on SNB-78 CNS was greater than 100 µM; in the assay with XF 498 CNS it was 82.7 µM.
As to `N#CC1=C(S)N(C2OC(CO)C(O)C(O)C2O)C(c2ccccc2)=CC1c1ccco1` (centres undefined), the TGI with OVCAR-8 ovarian, with DU-145 prostate, in the assay on NCI-H226 lung, in the assay on RXF 393 renal, with HCT-116 colon and in the assay with M14 melanoma was greater than 100 µM in each case.
For the compound `c1ccc(C(NC2=NCCO2)C2CC2)cc1` (centres undefined), the TGI in the assay with OVCAR-8 ovarian, in the assay with DU-145 prostate, in the assay on NCI-H226 lung, in the assay on RXF 393 renal, in the assay with HCT-116 colon and in the assay on M14 melanoma was greater than 100 µM each time.
Turning to `O=C1CSC(c2cc3cc(Br)ccc3nc2Cl)N1c1ccc(Cl)cc1` (centres undefined), the TGI in the assay on OVCAR-8 ovarian is greater than 100 µM; with DU-145 prostate, greater than 100 µM; in the assay on NCI-H226 lung it was greater than 100 µM; with RXF 393 renal it was 60.9 µM; in the assay with HCT-116 colon, 77 µM; in the assay on M14 melanoma it was 84.9 µM.
Take `COC(=O)/C=C1\C(CO[Si](C)(C)C(C)(C)C)OC(n2ccc(=O)[nH]c2=O)C1O` (centres undefined): the TGI in the assay on OVCAR-8 ovarian is greater than 100 µM; in the assay with DU-145 prostate, 32.7 µM; with NCI-H226 lung, 19.5 µM; in the assay on RXF 393 renal, 32.5 µM; in the assay on HCT-116 colon it was 16.9 µM; in the assay with M14 melanoma, 49.2 µM.
As to `CC(C)(C)OC(=O)/N=C/c1c(O)c2ccccc2oc1=O`, the TGI in the assay on OVCAR-8 ovarian was greater than 100 µM; with DU-145 prostate, greater than 100 µM; with NCI-H226 lung, 64.7 µM; in the assay on RXF 393 renal, greater than 100 µM; with HCT-116 colon it was greater than 100 µM; with M14 melanoma, greater than 100 µM.
Turning to `Cc1nc2ccc(N=Nc3c(C)noc3C)cc2[nH]1`, the TGI was 89.6 µM with OVCAR-8 ovarian; greater than 100 µM with DU-145 prostate; greater than 100 µM in the assay on NCI-H226 lung; 52.4 µM in the assay with RXF 393 renal; 91.4 µM in the assay with HCT-116 colon; greater than 100 µM in the assay with M14 melanoma.
Regarding `CC(C)=CCC[C@@H](C)C1=C(N)C(O)=C(C)C(=O)C1=O`, the TGI in the assay with OVCAR-8 ovarian was greater than 61.2 µM; in the assay on DU-145 prostate it was greater than 75 µM; in the assay with NCI-H226 lung, greater than 75 µM; in the assay on RXF 393 renal it was greater than 75 µM; in the assay with HCT-116 colon, greater than 75 µM; in the assay with M14 melanoma it was greater than 75 µM.
Turning to `COc1cc(Nc2nc3cc(C)ccc3nc2-c2ccccc2)cc(OC)c1OC`, the TGI is greater than 100 µM in the assay with OVCAR-8 ovarian; 31.5 µM in the assay with DMS 114 small cell lung; greater than 100 µM in the assay on KM20L2 colon; 71 µM in the assay with M19-MEL melanoma; 73.1 µM in the assay with HOP-18 NSCLC; 49.6 µM with DMS 273 small cell lung. The TGI with HCT-116 colon was 45.2 µM; in the assay with M14 melanoma, greater than 100 µM; in the assay on LXFL 529 NSCLC, greater than 100 µM; with XF 498 CNS, 42.1 µM.
With `CCOC(=O)c1cn(-c2ccc([N+](=O)[O-])cc2)c(=S)n2c1nc1ccccc12`, the TGI in the assay on OVCAR-8 ovarian, with DU-145 prostate, with NCI-H226 lung, in the assay with RXF 393 renal, in the assay with HCT-116 colon and in the assay on M14 melanoma was greater than 100 µM in each case.
`CCN(C(=O)N[C@@H](CC(C)C)C(=O)NCC(=O)OC)c1ccccc1`: the TGI in the assay with OVCAR-8 ovarian, in the assay with DU-145 prostate, in the assay with NCI-H226 lung, with RXF 393 renal, with HCT-116 colon and in the assay on M14 melanoma was greater than 100 µM in each case.

For the origin of these results see PubChem BioAssay (NCI).
